What was measured:
Mus musculus [1] = experiment: Activity in mCPP challenge test, disinhibition measurement after sc administration; format: functional
Mus musculus [2] = experiment: Activity in mCPP challenge test, exploration measurements after sc administration; format: functional
[3] = biological target: T1, Alpha-1A adrenergic receptor (Homo sapiens, UniProt P35348); experiment: Binding affinity against Alpha-1A adrenergic receptor
T1 sequence (P35348 whole entry): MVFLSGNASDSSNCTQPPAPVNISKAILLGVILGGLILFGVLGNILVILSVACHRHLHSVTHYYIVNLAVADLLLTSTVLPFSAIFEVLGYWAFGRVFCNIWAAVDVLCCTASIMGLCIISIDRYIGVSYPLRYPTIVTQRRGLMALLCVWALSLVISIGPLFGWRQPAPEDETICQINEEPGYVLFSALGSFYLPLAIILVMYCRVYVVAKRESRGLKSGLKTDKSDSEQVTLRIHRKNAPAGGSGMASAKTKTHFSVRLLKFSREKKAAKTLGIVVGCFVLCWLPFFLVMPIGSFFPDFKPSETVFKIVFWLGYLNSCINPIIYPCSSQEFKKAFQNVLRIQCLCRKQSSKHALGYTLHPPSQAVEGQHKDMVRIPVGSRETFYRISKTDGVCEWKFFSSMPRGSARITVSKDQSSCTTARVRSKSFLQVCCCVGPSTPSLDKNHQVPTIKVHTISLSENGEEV

[4] = biological target: T2, 5-hydroxytryptamine receptor 2A (Homo sapiens, UniProt P28223); experiment: Binding affinity against 5-hydroxytryptamine 2A receptor
T2 sequence (P28223 whole entry): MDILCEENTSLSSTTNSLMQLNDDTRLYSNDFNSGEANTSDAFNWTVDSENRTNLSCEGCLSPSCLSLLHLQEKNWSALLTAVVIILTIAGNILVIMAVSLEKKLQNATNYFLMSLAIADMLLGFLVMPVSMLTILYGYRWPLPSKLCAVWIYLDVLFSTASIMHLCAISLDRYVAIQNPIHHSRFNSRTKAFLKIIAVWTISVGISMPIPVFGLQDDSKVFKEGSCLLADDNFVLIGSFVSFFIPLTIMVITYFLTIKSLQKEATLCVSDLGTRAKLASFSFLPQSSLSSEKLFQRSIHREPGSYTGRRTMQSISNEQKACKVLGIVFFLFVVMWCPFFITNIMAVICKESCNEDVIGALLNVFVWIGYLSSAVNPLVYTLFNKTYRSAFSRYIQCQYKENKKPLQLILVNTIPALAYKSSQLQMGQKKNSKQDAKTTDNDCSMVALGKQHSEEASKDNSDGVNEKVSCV

D(3) dopamine receptor = D(3) dopamine receptor (Homo sapiens, UniProt P35462); experiment: Binding affinity against Dopamine receptor D3
Chain of D(3) dopamine receptor (P35462 whole entry): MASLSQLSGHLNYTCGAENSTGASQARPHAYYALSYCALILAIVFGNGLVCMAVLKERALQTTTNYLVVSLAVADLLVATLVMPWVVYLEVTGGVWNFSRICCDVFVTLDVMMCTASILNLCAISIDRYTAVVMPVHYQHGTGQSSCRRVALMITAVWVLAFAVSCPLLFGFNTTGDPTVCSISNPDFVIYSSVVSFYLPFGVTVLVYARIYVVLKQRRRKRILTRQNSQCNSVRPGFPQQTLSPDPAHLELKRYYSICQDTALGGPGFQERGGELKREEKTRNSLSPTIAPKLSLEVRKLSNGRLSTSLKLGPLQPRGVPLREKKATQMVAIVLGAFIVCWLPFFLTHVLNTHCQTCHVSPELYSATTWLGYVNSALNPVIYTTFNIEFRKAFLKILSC

Histamine H1 receptor = Histamine H1 receptor (Homo sapiens, UniProt P35367); experiment: Binding affinity against Histamine H1 receptor
Chain of Histamine H1 receptor (P35367 whole entry): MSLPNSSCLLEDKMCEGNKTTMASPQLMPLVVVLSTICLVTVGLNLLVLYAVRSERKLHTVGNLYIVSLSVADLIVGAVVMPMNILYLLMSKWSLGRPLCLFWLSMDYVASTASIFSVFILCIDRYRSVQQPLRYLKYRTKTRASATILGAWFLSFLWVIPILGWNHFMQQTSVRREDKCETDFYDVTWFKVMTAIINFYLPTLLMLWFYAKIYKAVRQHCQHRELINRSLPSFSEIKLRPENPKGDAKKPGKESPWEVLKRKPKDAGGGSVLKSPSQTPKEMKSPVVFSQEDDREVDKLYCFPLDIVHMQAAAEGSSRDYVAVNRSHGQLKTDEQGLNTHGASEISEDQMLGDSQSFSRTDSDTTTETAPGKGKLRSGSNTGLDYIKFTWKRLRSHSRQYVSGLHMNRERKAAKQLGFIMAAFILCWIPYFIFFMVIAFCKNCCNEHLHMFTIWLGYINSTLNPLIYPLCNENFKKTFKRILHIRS

D(4) dopamine receptor = biological target: T3, D(4) dopamine receptor (Homo sapiens, UniProt P21917); experiment: Binding affinity against Dopamine receptor D4
T3 sequence (P21917 whole entry): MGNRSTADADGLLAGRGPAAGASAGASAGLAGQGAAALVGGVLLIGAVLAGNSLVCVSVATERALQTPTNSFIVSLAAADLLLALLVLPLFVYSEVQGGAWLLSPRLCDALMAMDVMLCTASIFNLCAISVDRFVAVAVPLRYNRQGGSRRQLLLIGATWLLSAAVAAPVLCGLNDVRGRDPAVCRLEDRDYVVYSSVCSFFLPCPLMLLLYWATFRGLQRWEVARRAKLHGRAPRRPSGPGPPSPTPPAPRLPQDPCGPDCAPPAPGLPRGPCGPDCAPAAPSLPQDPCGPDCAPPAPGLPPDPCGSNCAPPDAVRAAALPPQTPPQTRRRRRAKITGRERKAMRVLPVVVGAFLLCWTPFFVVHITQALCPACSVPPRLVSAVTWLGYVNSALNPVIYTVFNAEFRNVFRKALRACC

D(2) dopamine receptor = D(2) dopamine receptor (Homo sapiens, UniProt P14416); experiment: Binding affinity against Dopamine receptor D2L
Chain of D(2) dopamine receptor (P14416 whole entry): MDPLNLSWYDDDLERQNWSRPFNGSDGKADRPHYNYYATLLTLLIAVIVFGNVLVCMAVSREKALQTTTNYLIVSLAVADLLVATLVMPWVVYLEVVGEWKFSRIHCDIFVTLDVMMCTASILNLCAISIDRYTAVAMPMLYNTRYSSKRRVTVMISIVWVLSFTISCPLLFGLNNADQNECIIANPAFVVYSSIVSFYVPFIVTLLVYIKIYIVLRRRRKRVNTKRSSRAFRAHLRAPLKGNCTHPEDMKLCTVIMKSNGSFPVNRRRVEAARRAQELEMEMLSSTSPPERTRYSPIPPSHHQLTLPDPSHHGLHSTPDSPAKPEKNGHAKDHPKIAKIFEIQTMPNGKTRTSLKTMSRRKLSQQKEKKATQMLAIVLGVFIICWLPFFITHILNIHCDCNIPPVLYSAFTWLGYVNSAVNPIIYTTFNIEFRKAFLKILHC

[5] = biological target: T4, 5-hydroxytryptamine receptor 2C (Homo sapiens, UniProt P28335); experiment: Binding affinity against 5-HT2C receptor
T4 sequence (P28335 whole entry): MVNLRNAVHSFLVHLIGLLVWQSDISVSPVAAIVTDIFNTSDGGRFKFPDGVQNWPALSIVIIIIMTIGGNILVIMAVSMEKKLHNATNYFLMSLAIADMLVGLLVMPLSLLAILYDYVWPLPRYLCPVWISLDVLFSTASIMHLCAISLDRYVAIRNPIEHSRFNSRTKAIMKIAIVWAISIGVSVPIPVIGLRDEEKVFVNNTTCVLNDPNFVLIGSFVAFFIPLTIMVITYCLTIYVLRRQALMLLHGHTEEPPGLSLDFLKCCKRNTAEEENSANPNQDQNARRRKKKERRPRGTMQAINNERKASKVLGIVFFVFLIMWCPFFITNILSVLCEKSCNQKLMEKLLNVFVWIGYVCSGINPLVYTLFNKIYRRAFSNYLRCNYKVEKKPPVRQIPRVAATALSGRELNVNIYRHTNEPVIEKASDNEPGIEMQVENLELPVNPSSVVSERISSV

[6] = biological target: T5, Alpha-2A adrenergic receptor (Homo sapiens, UniProt P08913); experiment: Binding affinity against Alpha-2A adrenergic receptor
T5 sequence (P08913 whole entry): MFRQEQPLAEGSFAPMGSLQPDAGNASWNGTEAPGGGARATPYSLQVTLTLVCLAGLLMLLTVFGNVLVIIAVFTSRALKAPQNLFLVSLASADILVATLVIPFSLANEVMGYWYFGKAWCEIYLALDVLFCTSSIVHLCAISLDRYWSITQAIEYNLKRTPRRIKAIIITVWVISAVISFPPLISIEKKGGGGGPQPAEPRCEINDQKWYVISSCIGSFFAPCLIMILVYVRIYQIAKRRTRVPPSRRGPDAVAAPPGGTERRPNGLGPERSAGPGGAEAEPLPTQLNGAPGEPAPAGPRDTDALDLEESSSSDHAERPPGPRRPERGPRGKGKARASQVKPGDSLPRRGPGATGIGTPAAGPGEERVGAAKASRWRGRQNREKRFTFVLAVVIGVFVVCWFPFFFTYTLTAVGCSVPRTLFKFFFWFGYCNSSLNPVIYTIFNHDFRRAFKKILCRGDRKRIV

[7] = biological target: T6, 5-hydroxytryptamine receptor 1A (Homo sapiens, UniProt P08908); experiment: Binding affinity against 5-HT1A receptor
T6 sequence (P08908 whole entry): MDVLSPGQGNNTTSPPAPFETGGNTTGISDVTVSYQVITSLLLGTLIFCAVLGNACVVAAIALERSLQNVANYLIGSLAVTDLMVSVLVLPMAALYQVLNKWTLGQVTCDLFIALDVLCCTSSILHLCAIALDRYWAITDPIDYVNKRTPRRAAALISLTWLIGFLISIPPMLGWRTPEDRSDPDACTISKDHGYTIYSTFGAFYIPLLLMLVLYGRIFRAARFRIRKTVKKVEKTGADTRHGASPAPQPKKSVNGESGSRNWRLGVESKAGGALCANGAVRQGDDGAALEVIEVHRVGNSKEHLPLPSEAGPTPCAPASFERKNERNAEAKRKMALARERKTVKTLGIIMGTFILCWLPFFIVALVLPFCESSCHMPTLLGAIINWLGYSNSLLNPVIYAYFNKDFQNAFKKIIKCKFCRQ

[8] = biological target: T7, 5-hydroxytryptamine receptor 1D (Homo sapiens, UniProt P28221); experiment: Binding affinity against 5-HT1D receptor
Target sequence in this assay (P28221 whole entry): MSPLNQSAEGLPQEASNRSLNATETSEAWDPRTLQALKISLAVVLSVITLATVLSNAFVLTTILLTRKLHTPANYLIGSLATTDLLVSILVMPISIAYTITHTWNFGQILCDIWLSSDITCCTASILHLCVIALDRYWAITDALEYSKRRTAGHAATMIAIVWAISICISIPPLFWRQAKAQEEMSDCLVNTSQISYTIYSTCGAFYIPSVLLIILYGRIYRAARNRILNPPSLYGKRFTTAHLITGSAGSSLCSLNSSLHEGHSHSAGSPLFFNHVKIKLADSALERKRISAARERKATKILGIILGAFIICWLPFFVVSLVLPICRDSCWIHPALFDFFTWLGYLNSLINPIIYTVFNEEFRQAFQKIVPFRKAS

[9] = biological target: T2, 5-hydroxytryptamine receptor 2A; experiment: Binding affinity against 5-HT2A receptor
[10] = biological target: T7, 5-hydroxytryptamine receptor 1D; experiment: Binding affinity against 5-hydroxytryptamine 1D receptor
Target sequence in this assay (P28221 whole entry, looked up): as the sequence (P28221 whole entry) above

Row | SMILES | ED50 (Mus musculus [1]) | ED50 (Mus musculus [2]) | IC50 [3] | IC50 [4] | IC50 (D(3) dopamine receptor) | IC50 (Histamine H1 receptor) | IC50 (D(4) dopamine receptor) | IC50 (D(2) dopamine receptor) | IC50 [5] | IC50 [6] | IC50 [7] | IC50 [8] | IC50 [9] | IC50 [10]
1 | CN(C)CC1CC2c3ccccc3Cc3ccncc3N2O1 (stereo not given) | 0.16 mg/kg | 2.5 mg/kg | 398 nM | 389 nM | 1660 nM | > 1000 nM | 251 nM | 1910 nM | 12.6 nM | > 1000 nM |  |  |  | 
2 | CN(C)CC1CC2c3ccccc3Cc3ccccc3N2O1 (stereo not given) | 0.01 mg/kg | > 2.5 mg/kg |  |  |  |  |  |  |  |  |  |  |  | 
3 | CN(C)CC1CC2c3cccnc3Cc3ccccc3N2O1 (stereo not given) | < 2.5 mg/kg | < 2.5 mg/kg | > 1000 nM |  | > 1000 nM | 16.6 nM | > 1000 nM | > 1000 nM |  | > 1000 nM | > 1000 nM | > 1000 nM | > 1000 nM | 912 nM
4 | CN(C)CC1CC2c3ccccc3Cc3ccc(Cl)cc3N2O1 (stereo not given) | 0.16 mg/kg | > 2.5 mg/kg | 14.5 nM |  |  | 2.34 nM | 2.63 nM |  | 1.05 nM |  |  |  |  | 
